# Source: publication PMC9675441 (JCI Insight, 2022)
# Target: T1, ISG20L2 (interferon-stimulated 20 kDa exonuclease-like 2) (Homo sapiens, UniProt Q9H9L3)
# T1 construct: recombinant human ISG20L2 (rISG)
# T1 sequence (Q9H9L3 1-353): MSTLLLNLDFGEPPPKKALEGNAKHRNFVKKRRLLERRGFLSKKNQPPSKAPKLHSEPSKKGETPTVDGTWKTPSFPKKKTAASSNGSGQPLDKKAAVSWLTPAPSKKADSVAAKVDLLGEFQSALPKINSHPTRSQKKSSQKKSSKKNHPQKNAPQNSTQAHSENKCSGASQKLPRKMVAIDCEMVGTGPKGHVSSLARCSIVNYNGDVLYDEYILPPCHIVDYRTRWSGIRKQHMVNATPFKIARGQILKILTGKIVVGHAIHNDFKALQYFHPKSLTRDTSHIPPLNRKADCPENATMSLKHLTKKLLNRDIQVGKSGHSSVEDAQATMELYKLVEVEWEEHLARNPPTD
# Assay: SPR (Biacore X100, ISG20L2 immobilized on CM5 chip)
# Type: binding
row,SMILES,Kd [µM]
1,"CC(C)C[C@H](NC(=O)[C@H](Cc1ccccc1)NC(=O)c1cnccn1)B(O)O [BTZ, bortezomib]",26.7
2,"CC(C)C[C@H](NC(=O)[C@H](CCc1ccccc1)NC(=O)CN1CCOCC1)C(=O)N[C@@H](Cc1ccccc1)C(=O)N[C@@H](CC(C)C)C(=O)[C@@]1(C)CO1 [CFZ, carfilzomib]",8.71
